Assay results as given in US9775844B2, “Heterocyclic compounds and uses thereof” (Infinity Pharmaceuticals, Inc., priority 2014, dated 2017).

Assays:
PI3K γ = PI3K γ (Homo sapiens (Human), UniProt P48736); assay: PI3-Kinase Promega ADP-Glo Max assay; type: biochemical
PI3K-δ in RAJI cells = PI3K-δ in RAJI cells (Homo sapiens (Human), UniProt O00329); assay: RAJI p110 δ assay (PI3K-δ selective cellular assay, phospho-AKT); type: cell-based; settings: phospho-AKT; read-out: RAJI p110 δ assay IC50
PI3K β = PI3K β (Homo sapiens (Human), UniProt P42338); assay: PI3-Kinase Promega ADP-Glo Max assay; type: biochemical
PI3K δ = PI3K δ (Homo sapiens (Human), UniProt O00329); assay: PI3-Kinase Promega ADP-Glo Max assay; type: biochemical
[1] = biological target: PI3K-γ in RAW264.7 macrophages (Mus musculus (Mouse), UniProt Q9JHG7); assay: Raw264.7 p110 γ assay (PI3K-γ selective cellular assay, C5a-stimulated phospho-AKT); type: cell-based; settings: for IC50: phospho-AKT, read-out: Raw264.7 p110 γ assay IC50
From the text: Briefly, serum-starved RAW264.7 cells are stimulated with a known GPCR agonist C5a. […] Cells can be treated with test compounds prior to, simultaneously with, or subsequent to the stimulation by C5a. RAW 264.7 cells respond to the complement component fragment C5a through activation of the C5a receptor, and the C5a receptor activates macrophages and induces cell migration.

PI3K α = PI3K α (Homo sapiens (Human), UniProt P42336); assay: PI3-Kinase Promega ADP-Glo Max assay; type: biochemical
Chain of PI3K α (P42336 whole entry): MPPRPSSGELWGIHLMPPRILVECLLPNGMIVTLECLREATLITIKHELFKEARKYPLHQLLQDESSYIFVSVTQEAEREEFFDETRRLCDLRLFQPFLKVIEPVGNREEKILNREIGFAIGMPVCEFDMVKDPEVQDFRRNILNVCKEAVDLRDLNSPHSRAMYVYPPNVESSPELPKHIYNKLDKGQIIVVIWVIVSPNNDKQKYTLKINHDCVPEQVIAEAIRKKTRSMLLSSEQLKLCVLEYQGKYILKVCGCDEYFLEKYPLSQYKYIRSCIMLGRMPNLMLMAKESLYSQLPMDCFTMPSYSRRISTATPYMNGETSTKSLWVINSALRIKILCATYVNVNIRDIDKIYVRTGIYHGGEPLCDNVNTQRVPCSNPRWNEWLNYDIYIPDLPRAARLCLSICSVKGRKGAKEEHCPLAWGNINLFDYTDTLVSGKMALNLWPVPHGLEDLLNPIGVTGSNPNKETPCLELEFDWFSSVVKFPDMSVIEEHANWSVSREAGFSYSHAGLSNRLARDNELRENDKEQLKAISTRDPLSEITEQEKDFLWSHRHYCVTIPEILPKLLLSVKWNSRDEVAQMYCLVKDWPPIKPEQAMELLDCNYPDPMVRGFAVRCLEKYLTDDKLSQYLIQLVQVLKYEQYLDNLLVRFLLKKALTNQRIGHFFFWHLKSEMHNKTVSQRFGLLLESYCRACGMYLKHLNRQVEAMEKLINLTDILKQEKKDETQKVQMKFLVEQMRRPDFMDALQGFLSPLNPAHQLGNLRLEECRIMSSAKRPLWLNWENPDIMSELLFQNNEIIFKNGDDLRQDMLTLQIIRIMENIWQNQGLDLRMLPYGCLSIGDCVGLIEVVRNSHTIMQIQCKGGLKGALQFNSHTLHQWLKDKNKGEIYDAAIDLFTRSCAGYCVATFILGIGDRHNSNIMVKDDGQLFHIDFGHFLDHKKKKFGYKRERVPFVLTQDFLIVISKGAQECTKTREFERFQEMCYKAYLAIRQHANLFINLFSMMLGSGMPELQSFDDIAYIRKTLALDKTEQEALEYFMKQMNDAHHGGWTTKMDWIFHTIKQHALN
Chain of PI3K α (P27986 whole entry partner): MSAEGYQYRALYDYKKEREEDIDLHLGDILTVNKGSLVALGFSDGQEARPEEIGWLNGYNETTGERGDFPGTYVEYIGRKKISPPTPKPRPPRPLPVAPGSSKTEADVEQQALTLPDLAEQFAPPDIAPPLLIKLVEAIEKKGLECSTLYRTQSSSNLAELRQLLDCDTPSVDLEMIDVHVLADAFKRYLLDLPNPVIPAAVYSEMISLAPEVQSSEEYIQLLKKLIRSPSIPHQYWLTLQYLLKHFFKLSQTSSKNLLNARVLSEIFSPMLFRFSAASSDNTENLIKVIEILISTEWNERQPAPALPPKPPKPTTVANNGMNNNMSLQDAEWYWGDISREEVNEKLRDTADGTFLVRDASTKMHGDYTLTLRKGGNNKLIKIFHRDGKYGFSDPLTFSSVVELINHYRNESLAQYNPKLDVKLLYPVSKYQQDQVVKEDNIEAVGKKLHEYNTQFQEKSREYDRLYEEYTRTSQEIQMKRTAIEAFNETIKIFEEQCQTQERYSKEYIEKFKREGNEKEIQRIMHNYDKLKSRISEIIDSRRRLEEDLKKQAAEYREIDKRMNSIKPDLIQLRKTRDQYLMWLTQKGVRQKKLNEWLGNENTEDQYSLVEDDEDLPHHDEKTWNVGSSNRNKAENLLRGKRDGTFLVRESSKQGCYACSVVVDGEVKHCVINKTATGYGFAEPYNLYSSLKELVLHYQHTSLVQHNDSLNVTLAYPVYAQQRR

Chain of PI3K-γ in RAW264.7 macrophages (Q9JHG7 whole entry): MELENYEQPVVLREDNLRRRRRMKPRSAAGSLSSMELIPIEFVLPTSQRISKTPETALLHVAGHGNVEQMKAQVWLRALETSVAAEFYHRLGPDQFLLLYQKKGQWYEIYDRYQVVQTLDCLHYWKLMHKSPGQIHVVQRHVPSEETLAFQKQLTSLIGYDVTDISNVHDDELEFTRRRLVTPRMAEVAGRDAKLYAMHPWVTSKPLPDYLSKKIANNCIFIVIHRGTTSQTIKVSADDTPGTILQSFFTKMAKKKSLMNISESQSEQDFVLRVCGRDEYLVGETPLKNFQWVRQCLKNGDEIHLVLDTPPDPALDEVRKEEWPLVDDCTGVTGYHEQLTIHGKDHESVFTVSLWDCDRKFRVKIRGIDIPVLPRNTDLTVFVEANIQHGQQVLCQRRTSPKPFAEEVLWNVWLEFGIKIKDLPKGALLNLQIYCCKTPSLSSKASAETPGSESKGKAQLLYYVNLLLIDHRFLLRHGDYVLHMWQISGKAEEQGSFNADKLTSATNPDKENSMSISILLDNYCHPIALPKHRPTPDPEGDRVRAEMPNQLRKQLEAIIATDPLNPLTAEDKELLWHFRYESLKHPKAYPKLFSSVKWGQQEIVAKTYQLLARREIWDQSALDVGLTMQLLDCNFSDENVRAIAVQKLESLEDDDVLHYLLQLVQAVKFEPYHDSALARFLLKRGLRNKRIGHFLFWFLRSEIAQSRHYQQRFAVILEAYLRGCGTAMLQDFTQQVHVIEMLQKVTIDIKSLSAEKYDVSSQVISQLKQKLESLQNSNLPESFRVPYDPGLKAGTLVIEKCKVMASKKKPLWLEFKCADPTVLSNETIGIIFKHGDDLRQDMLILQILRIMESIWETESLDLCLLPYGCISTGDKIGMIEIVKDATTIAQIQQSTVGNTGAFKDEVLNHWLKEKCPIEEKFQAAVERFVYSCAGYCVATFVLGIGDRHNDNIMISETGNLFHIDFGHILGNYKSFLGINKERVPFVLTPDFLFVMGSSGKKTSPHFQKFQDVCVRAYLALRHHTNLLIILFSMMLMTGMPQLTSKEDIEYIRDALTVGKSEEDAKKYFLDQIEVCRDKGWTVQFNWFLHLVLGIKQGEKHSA
Chain of PI3K β (P42338 whole entry): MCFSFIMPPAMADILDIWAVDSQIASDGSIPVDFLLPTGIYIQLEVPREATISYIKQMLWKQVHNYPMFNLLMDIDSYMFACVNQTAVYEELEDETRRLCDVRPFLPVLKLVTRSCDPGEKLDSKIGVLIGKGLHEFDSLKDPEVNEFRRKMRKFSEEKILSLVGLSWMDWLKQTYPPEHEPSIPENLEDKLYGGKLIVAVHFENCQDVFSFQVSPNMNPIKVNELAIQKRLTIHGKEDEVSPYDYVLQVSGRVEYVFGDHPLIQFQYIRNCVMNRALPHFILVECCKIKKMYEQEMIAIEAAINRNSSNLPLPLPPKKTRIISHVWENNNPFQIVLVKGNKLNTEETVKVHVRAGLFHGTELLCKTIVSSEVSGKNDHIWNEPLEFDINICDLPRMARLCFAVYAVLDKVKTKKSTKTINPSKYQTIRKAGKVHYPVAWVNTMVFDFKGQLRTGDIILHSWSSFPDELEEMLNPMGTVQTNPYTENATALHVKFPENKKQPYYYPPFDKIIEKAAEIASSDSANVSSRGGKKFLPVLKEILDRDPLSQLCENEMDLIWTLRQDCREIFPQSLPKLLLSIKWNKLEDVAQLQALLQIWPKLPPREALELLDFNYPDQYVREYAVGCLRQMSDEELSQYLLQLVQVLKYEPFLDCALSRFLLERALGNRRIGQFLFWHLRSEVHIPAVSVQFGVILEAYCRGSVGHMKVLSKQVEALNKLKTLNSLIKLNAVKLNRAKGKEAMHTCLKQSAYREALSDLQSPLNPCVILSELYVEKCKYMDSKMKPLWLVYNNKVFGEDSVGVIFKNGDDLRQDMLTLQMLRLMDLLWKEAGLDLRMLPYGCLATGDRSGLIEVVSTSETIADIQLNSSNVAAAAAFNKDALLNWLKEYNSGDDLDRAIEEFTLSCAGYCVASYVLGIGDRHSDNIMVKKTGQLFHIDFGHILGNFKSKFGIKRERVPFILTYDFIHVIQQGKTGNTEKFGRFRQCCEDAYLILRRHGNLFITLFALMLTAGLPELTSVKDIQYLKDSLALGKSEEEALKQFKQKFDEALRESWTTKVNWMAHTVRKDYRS
Chain of PI3K β (P27986 whole entry partner): as the sequence (P27986 whole entry partner) above
Chain of PI3K γ (P48736 whole entry): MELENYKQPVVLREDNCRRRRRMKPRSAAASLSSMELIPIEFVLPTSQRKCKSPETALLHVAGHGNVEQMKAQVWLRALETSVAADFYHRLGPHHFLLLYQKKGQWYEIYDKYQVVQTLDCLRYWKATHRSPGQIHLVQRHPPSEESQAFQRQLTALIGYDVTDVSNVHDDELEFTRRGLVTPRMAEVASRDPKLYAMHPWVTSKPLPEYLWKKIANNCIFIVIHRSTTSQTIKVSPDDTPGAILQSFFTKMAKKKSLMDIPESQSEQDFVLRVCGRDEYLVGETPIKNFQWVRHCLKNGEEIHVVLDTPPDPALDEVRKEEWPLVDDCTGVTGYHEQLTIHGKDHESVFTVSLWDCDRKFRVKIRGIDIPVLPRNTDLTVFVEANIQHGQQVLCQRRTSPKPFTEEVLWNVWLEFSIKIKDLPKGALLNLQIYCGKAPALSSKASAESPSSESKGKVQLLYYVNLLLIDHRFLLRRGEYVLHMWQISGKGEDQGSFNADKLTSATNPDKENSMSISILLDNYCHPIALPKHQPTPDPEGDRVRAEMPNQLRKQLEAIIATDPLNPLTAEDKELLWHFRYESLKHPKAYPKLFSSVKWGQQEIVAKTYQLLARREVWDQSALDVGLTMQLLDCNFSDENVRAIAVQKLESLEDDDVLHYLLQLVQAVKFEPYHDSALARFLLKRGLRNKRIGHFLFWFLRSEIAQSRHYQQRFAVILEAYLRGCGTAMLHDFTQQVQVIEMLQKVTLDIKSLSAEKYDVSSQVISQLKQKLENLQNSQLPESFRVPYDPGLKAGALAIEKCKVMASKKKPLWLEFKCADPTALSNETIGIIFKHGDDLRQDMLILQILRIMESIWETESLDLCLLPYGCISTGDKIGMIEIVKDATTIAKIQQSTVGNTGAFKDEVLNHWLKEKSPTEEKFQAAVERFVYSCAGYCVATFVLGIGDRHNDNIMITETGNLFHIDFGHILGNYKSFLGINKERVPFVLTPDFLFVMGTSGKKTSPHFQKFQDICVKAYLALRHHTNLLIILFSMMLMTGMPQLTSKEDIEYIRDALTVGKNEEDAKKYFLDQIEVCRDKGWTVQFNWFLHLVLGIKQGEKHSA

Row | SMILES | IC50 (PI3K γ) [µM] | PI3K δ/PI3K γ IC50 (selectivity) (PI3K γ) | IC50 (PI3K-δ in RAJI cells) [µM] | IC50 (PI3K β) [µM] | IC50 (PI3K δ) [µM] | RAJIδ/Raw264.7 γ IC50 (selectivity) [1] | IC50 [1] [µM] | IC50 (PI3K α) [µM]
1 | CC#Cc1cccc2nc([C@H](C)NC(=O)c3c(N)nn4cccnc34)n(-c3ccccc3)c(=O)c12 [Compound 1] | 0.001 to 0.1 | X (X = 10 to <50) | 0.001 to 0.1 | 1 to 5 | 0.5 to 1 | X (X = 10 to <50) | 0.001 to 0.05 | 5 to 10
2 | CC(C)C#Cc1cccc2cc([C@H](C)NC(=O)c3c(N)nn4cccnc34)n(-c3ccccc3)c(=O)c12 [Compound 2] | 0.5 to 1 | X (X = 10 to <50) | 0.5 to 1 | 5 to 10 | 5 to 10 | Y (Y = 50 to <850) | 0.001 to 0.05 | 5 to 10
3 | C[C@H](NC(=O)c1c(N)nn2cccnc12)c1cc2cccc(C#CC(C)(C)C)c2c(=O)n1-c1ccccc1 [Compound 3] | 1 to 5 | W (W = >1 to <10) | 1 to 10 | 5 to 10 | 5 to 10 | X (X = 10 to <50) | 0.05 to 0.1 | 5 to 10
4 | C[C@H](NC(=O)c1c(N)nn2cccnc12)c1cc2cccc(C#Cc3ccccc3)c2c(=O)n1-c1ccccc1 [Compound 5] | 1 to 5 | V (V = 0.1 to 1) | 0.001 to 0.1 | 5 to 10 | 0.001 to 0.5 | W (W = >1 to <10) | 0.001 to 0.05 | 5 to 10
5 | COc1ccc(C#Cc2cccc3cc([C@H](C)NC(=O)c4c(N)nn5cccnc45)n(-c4ccccc4)c(=O)c23)cn1 [Compound 6] | 0.1 to 0.5 | Y (Y = 50 to <850) | 0.5 to 1 | 5 to 10 | 5 to 10 | X (X = 10 to <50) | 0.001 to 0.05 | 5 to 10
6 | C[C@H](NC(=O)c1c(N)nn2cccnc12)c1cc2cccc(C#Cc3cncn3C)c2c(=O)n1-c1ccccc1 [Compound 7] | 0.1 to 0.5 | Y (Y = 50 to <850) | 0.5 to 1 | 5 to 10 | 5 to 10 | Y (Y = 50 to <850) | 0.001 to 0.05 | 5 to 10
7 | C[C@H](NC(=O)c1c(N)nn2cccnc12)c1nc2cccc(C#Cc3cnn(C)c3)c2c(=O)n1-c1ccccc1 [Compound 21] | – | – | 0.1 to 0.5 | 5 to 10 | 5 to 10 | – | – | 5 to 10
8 | C[C@H](NC(=O)c1c(N)nn2cccnc12)c1cc2cccc(C#Cc3cnn(C)c3)c2c(=O)n1C1CC1 [Compound 25] | – | – | 0.1 to 0.5 | 1 to 5 | 5 to 10 | – | 0.001 to 0.05 | 1 to 5
9 | C[C@H](NC(=O)c1c(N)nn2cccnc12)c1cc2cccc(C#Cc3ccc(=O)[nH]c3)c2c(=O)n1-c1ccccc1 [Compound 33] | – | – | – | – | – | – | 0.001 to 0.05 | –
10 | C[C@H](NC(=O)c1cncc2cccnc12)c1cc2cccc(C#Cc3cnn(C)c3)c2c(=O)n1-c1ccccc1 [Compound 42] | – | – | – | – | – | – | 0.001 to 0.05 | –
11 | C[C@H](NC(=O)c1c(N)nn2cccnc12)c1cc2cccc(C#Cc3cnn(C)c3)c2c(=O)[nH]1 [Compound 44] | – | – | – | – | – | – | 0.05 to 0.1 | –
12 | C#Cc1cccc2nc([C@H](C)NC(=O)c3nccnc3N)n(-c3ccccc3)c(=O)c12 [Compound 47] | 0.001 to 0.1 | V (V = 0.1 to 1) | – | 0.001 to 0.5 | 0.001 to 0.5 | – | – | 1 to 5
13 | COc1cnc(C(=O)N[C@@H](C)c2cc3cccc(C#Cc4cnn(C)c4)c3c(=O)n2-c2ccccc2)c(N)n1 [Compound 71] | > 5 | V (V = 0.1 to 1) | 1 to 10 | 5 to 10 | 5 to 10 | – | – | 5 to 10
14 | C[C@H](NC(=O)c1c(N)nn2cccnc12)c1cc2cccc(C#CC3CCN(C)CC3)c2c(=O)n1-c1ccccc1 [Compound 85] | 0.5 to 1 | X (X = 10 to <50) | – | 5 to 10 | 5 to 10 | – | – | 5 to 10
15 | Cc1nnc(C#Cc2cccc3cc([C@H](C)NC(=O)c4c(N)nn5cccnc45)n(-c4ccccc4)c(=O)c23)s1 [Compound 86] | 0.1 to 0.5 | X (X = 10 to <50) | – | 1 to 5 | 1 to 5 | – | – | 5 to 10
16 | C[C@H](NC(=O)c1c(N)nn2cccnc12)c1cc2cccc(/C=C/c3ccccc3)c2c(=O)n1-c1ccccc1 [Compound 87] | > 5 | V (V = 0.1 to 1) | – | 5 to 10 | 5 to 10 | – | – | 5 to 10
17 | C[C@H](NC(=O)c1c(N)nn2cccnc12)c1cc2cccc(C#Cc3cnn(C)c3)c2c(=O)n1-c1cccc(F)c1 [Compound 93] | 0.001 to 0.1 | Y (Y = 50 to <850) | – | 5 to 10 | 5 to 10 | – | – | 5 to 10

Row | SMILES | IC50 (PI3K γ) [µM] | PI3K δ/PI3K γ IC50 (selectivity) (PI3K γ) | IC50 (PI3K-δ in RAJI cells) [µM] | IC50 (PI3K β) [µM] | IC50 (PI3K δ) [µM] | RAJIδ/Raw264.7 γ IC50 (selectivity) [1] | IC50 [1] [µM] | IC50 (PI3K α) [µM]
18 | C[C@H](NC(=O)c1c(N)nn2cccnc12)c1cc2cccc(C#Cc3cnn(C)c3)c2c(=O)n1C [Compound 94] | 0.1 to 0.5 | X (X = 10 to <50) | – | 0.5 to 1 | 5 to 10 | – | – | 1 to 5
19 | Cc1cccc(-n2c([C@H](C)NC(=O)c3c(N)nn4cccnc34)cc3cccc(C#Cc4cnn(C)c4)c3c2=O)c1 [Compound 95] | 0.1 to 0.5 | X (X = 10 to <50) | – | 5 to 10 | 5 to 10 | – | – | 5 to 10
20 | C[C@H](NC(=O)c1c(N)nn2cccnc12)c1cc2cccc(C#Cc3cnn(C)c3)c2c(=O)n1-c1ccc(F)cc1 [Compound 96] | 0.001 to 0.1 | Y (Y = 50 to <850) | – | 5 to 10 | 5 to 10 | – | – | 1 to 5
21 | C[C@H](NC(=O)c1c(N)nn2cccnc12)c1cc2cccc(C#Cc3cnn(C)c3)c2c(=O)n1-c1ccc(F)c(F)c1 [Compound 97] | 0.1 to 0.5 | X (X = 10 to <50) | – | 5 to 10 | 5 to 10 | – | – | 5 to 10
22 | Cc1ccc(-n2c([C@H](C)NC(=O)c3c(N)nn4cccnc34)cc3cccc(C#Cc4cnn(C)c4)c3c2=O)cc1 [Compound 98] | 0.1 to 0.5 | X (X = 10 to <50) | – | 5 to 10 | 5 to 10 | – | – | 5 to 10
23 | C[C@H](NC(=O)c1c(N)nn2cccnc12)c1cc2cccc(C#Cc3cnn(C)c3)c2c(=O)n1C1CCCCC1 [Compound 99] | 1 to 5 | X (X = 10 to <50) | – | 5 to 10 | 5 to 10 | – | – | 5 to 10
24 | CNS(=O)(=O)CCn1c([C@H](C)NC(=O)c2c(N)nn3cccnc23)cc2cccc(C#Cc3cnn(C)c3)c2c1=O [Compound 100] | 0.001 to 0.1 | Y (Y = 50 to <850) | – | 1 to 5 | 5 to 10 | – | – | 1 to 5
25 | Cc1ccccc1-n1c([C@H](C)NC(=O)c2c(N)nn3cccnc23)cc2cccc(C#Cc3cnn(C)c3)c2c1=O [Compound 101] | 0.001 to 0.1 | Y (Y = 50 to <850) | – | 5 to 10 | 5 to 10 | – | – | 5 to 10
26 | Cc1ccnc2c(C(=O)N[C@@H](C)c3cc4cccc(C#Cc5cnn(C)c5)c4c(=O)n3-c3ccccc3)c(N)nn12 [Compound 102] | 0.1 to 0.5 | X (X = 10 to <50) | – | 5 to 10 | 5 to 10 | – | – | 5 to 10
27 | CC(C)n1c([C@H](C)NC(=O)c2c(N)nn3cccnc23)cc2cccc(C#Cc3cnn(C)c3)c2c1=O [Compound 103] | 0.5 to 1 | X (X = 10 to <50) | – | 5 to 10 | 5 to 10 | – | – | 5 to 10
28 | C[C@H](NC(=O)c1c(N)nn2cccnc12)c1cc2cccc(C#Cc3cnn(C)c3)c2c(=O)n1CCS(=O)(=O)N(C)C [Compound 104] | 0.001 to 0.1 | Y (Y = 50 to <850) | – | 1 to 5 | 5 to 10 | – | – | 1 to 5
29 | CC[C@H](NC(=O)c1c(N)nn2cccnc12)c1cc2cccc(C#Cc3cnn(C)c3)c2c(=O)n1-c1ccccc1 [Compound 105] | 0.001 to 0.1 | Y (Y = 50 to <850) | – | 5 to 10 | 5 to 10 | – | – | 1 to 5
30 | Cc1ccn2nc(N)c(C(=O)N[C@@H](C)c3cc4cccc(C#Cc5cnn(C)c5)c4c(=O)n3-c3ccccc3)c2n1 [Compound 106] | 0.001 to 0.1 | Y (Y = 50 to <850) | – | 1 to 5 | 5 to 10 | – | – | 5 to 10
31 | Cn1cc(C#Cc2cccc3cc(CNC(=O)c4c(N)nn5cccnc45)n(-c4ccccc4)c(=O)c23)cn1 [Compound 107] | 1 to 5 | X (X = 10 to <50) | – | 5 to 10 | 5 to 10 | – | – | 5 to 10
32 | Cc1cc(C)n2nc(N)c(C(=O)N[C@@H](C)c3cc4cccc(C#Cc5cnn(C)c5)c4c(=O)n3-c3ccccc3)c2n1 [Compound 108] | 0.1 to 0.5 | X (X = 10 to <50) | – | 5 to 10 | 5 to 10 | – | – | 5 to 10
33 | C[C@H](NC(=O)c1c(N)nn2cccnc12)c1cc2cccc(N)c2c(=O)n1-c1ccccc1 [Compound 109, (S)-2-amino-N-(1-(8-amino-1-oxo-2-phenyl-1,2-dihydroisoquinolin-3-yl)ethyl)pyrazolo[1,5-a]pyrimidine-3-carboxamide] | 0.001 to 0.1 | X (X = 10 to <50) | – | 1 to 5 | 1 to 5 | – | – | 5 to 10
